Consider 4 compounds from US6001851A, “HIV protease inhibitors” (Agouron Pharmaceuticals, Inc., priority 1998, dated 1999).

Like-named read-outs stand apart in the source and are kept apart here.

In one series the target is T1, HIV-1 protease (Q7S) (Human immunodeficiency virus type 1 group M subtype B, UniProt P03366, Q507S).
T1 construct: HIV-1 protease gene was isolated from the viral strain IIIB; made in house; host or cells: E. coli BL21(DE3), plasmid pGZ/HP-19Q7S#9
Kind of series: Tight-binding kinetics assay, HIV-1 protease inhibition (modified chromogenic assay). It counts as biochemical, HIV-1 (viral strain IIIB).

The subject of the next series is HIV-1 IIIB. Kind of series: Cell protection assay (MTT dye reduction): acute infection of MT-2 cells with HIV-1 IIIB. It is filed as cell-based, HIV-1 strain IIIB (in human T cell line MT-2). As to conditions: for Therapeutic: therapeutic index TC50/ED50, MT-2 cells, 10080 min. As to the method: (§1) The CEM-SS and MT-2 human T cell lines and HIV-1 strains RF and IIIB were obtained from the AIDS Research and Reference Program, Division of AIDS, NIAID, and NIH.
(§2) The inhibitory effects of each agent on HIV-1 replication were measured by the MTT dye reduction method (Alley, M. C. et al., Cancer Res. 48: 589-601 (1988)). Compounds were dissolved in DMSO at a concentration of 40 mg/ml then diluted 1:200 in culture medium (RPMI, supplemented with 10% fetal bovine serum). From each diluted stock, 100 μl was added to a 96-well plate and serial half-log dilutions were prepared. In separate tubes, MT-2 cells and CEM-SS cells were infected with HIV-1 IIIB or HIV-1 RF at a multiplicity of infection (m.o.i.) of 0.01 and 0.03, respectively. Following a 4-hour adsorption period, […] of infected or uninfected cells were added to the wells of the drug containing plate to give a final concentration of 1×10^4 cells/well. Six days (CEM-SS cells) or 7 days (MT-2 cells) later, MTT (5 mg/ml) was added to test plates and the amount of formazan produced was quantified spectrophotometrically at 570 nm. Data were expressed as the percentage of formazan produced in drug-treated cells compared to formazan produced in wells of uninfected, drug-free cells. The EDS50 was calculated as the concentration of drug that increased the percentage of formazan production in infected, drug-treated cells to 50% of that produced by uninfected, drug-free cells. Cytotoxicity (TC50) was calculated as the concentration of drug that decreased the percentage of formazan produced in uninfected, drug-treated cells to 50% of that produced in uninfected, drug-free cells. The therapeutic index (TI) was calculated by dividing the cytotoxicity (TC50) by the antiviral efficacy (ED50).
For orientation: Tetrazolium assays rely on reduction of a dye to a coloured formazan, in cell work by metabolically active cells.

A further series relates to HIV-1 RF. Kind of series: Cell protection assay (MTT dye reduction): acute infection of CEM-SS cells with HIV-1 RF. It is filed as cell-based, HIV-1 strain RF (in human T cell line CEM-SS). The note with it: for EC95: read-out: ED95; for Therapeutic index: TC50/ED50, CEM-SS cells, 8640 min. As to the method:
as §1, §2

A short description of series [1]: Cytotoxicity in uninfected CEM-SS cells (MTT). It is filed as cell-based. The note with it: human. As to the method:
as §1, §2

Series [2] can be described thus: Cytotoxicity in uninfected MT-2 cells (MTT). It is filed as cell-based. As to conditions: human. The method, then: as §1, §2
A short description of series [3]: Metabolite obtained from the plasma of patients. It counts as in vivo. The note with it: plasma of patients administered the N-t-butylcarboxamide methanesulfonic acid salt of U.S. Pat. No. 5,484,926. From the text:
A process for making compound 21 is provided below.

[4] abbreviates: uninfected CEM-SS cells, 6 days, read-out: TC50.
The mark [5] stands for this setting: uninfected MT-2 cells, 7 days, read-out: TC50.
[6] abbreviates: Human immunodeficiency virus 1, MT2, 168 h, MT-2 cells, HIV-1 IIIB, m.o.i. 0.01, 7 days, read-out: ED50 (the source's name).
Setting [7] is: Human immunodeficiency virus 1, 144 h, CEM-SS cells, HIV-1 RF, m.o.i. 0.03, 6 days, read-out: ED50 (the source's name).
[8] abbreviates: Human immunodeficiency virus 1, 144 h, CEM-SS cells, HIV-1 RF, m.o.i. 0.03, 6 days.

Experimental for HIV-1 protease (Q7S): Proteolytic activity of purified HIV-1 protease was measured using a modified chromogenic assay developed by Richards at al. (Richards, A. D. et al. J. Biol. Chem., 256, 773-7736 (1990)). […] The assay was carried out in 0.5 M NaCl, 50 mM MES pH 5.6, 5 mM DDT, and 2% DMSO at 37° C. Cleavage of the scissile bond between leucine and paranitro-phenylalanine (Phe para-NO2) was assayed by spectrophotometric monitoring of the decrease on absorbance at 305 nm.

Take “His-Lys-Ala-Arg-Val-Leu-Phe(paraNO2)-Glu-Ala-Nle-Ser-NH2”: on HIV-1 protease (Q7S) (substrate, Q7S HIV-1 protease, 0.5 M NaCl, 50 mM MES pH 5.6, 2% DMSO, 37° C., read-out: Michaelis constant (Km)), the Km was 59 ± 17 µM.
`Cc1cn([C@H]2C[C@H](N=[N+]=[N-])[C@@H](CO)O2)c(=O)[nH]c1=O` [AZT, azidothymidine]: the EC50 with HIV-1 IIIB (Human immunodeficiency virus 1, IIIB, MT2, 168 h, read-out: ED50) was 431 nM; in the series on HIV-1 RF (Human immunodeficiency virus 1, CEM-SS, 144 h, read-out: ED50), 52.3 nM. The Therapeutic in the series with HIV-1 IIIB (HIV-1 IIIB) came out at 254. For the same compound, the EC95 in the series on HIV-1 RF (Human immunodeficiency virus 1, CEM-SS, 144 h) stood at 543 nM. In addition, the Therapeutic index in the series with HIV-1 RF (HIV-1 RF) is given as above 7161. For the same compound, in series [1] (setting [4]), the CC50 at 144 h is above 374000 nM. Further, the CC50 at 168 h in series [2] (setting [5]) stood at 109000 nM.
Consider `Nc1ccn([C@H]2CC[C@@H](CO)O2)c(=O)n1` [ddC, dideoxycytidine], for which the EC50 in the series on HIV-1 IIIB (setting [6]) amounted to 5920 nM; in the series with HIV-1 RF (setting [7]), 94.7 nM. In the series with HIV-1 IIIB (HIV-1 IIIB), this compound registered a Therapeutic of 30. Moreover, the EC95 in the series on HIV-1 RF (setting [8]) was determined as 142 nM. The Therapeutic index with HIV-1 RF (HIV-1 RF) is listed as 398. Besides, the CC50 at 144 h in series [1] (cem-ss cells) is 37700 nM. Further, the CC50 at 168 h in series [2] (mt-2 cells) was 176000 nM.
`Cc1c(O)cccc1C(=O)NC(CSc1ccccc1)C(O)CN1CC2CCCCC2CC1C(=O)NC(C)(C)CO` (stereo not drawn) [Compound 21, [3S-[2(2S*,3S*),3 alpha,4abeta,8abeta]]-N-(1,1-dimethyl-2-hydroxyethyl)decahydro-2-[2-hydroxy-3-[(3-hydroxy-2-methylbenzoyl)amino]-4-(phenylthio)butyl]-3-isoquinolinecarboxamide]: the EC50 is 85.6 nM in the series on HIV-1 IIIB (setting [6]) and 34.2 nM with HIV-1 RF (setting [7]). Besides, the Therapeutic in the series with HIV-1 IIIB (HIV-1 IIIB) worked out at 1082. The EC95 in the series with HIV-1 RF (setting [8]) was 154 nM. Besides, the Therapeutic index in the series with HIV-1 RF (HIV-1 RF) was 2825. Moreover, in series [1] (setting [4]), the CC50 at 144 h came to 96600 nM. On HIV-1 protease (Q7S) (tight binding kinetics, 200 uM substrate, pH 5.6, 37° C., Morrison fit), this compound gave an inhibition constant Ki of 5.6 ± 0.91 nM. In addition, the “obtained as a metabolite” value in series [3] was “obtained as a metabolite from the plasma of patients”. The CC50 at 168 h in series [2] (setting [5]) worked out at 92600 nM.

For orientation: Km means the concentration of substrate that gives half-maximal velocity. As a reminder, the Ki is the equilibrium dissociation constant of an inhibitor or competing ligand from its target. High values mean weaker binding, low ones tighter binding.
